Data from PubChem BioAssay (NCI).
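Cultured in 96-well plates, cells were exposed to test compound for 48 hours across five concentrations. GI50: concentration for 50% inhibition of growth. The concentration for full growth arrest is given as TGI.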

Key:
Experiment in all cases: NCI anticancer screen, dose series, 48 h
CAKI-1 renal = test system: CAKI-1 renal
NCI-H460 lung = test system: NCI-H460 lung
HCT-15 colon = test system: HCT-15 colon
HT29 colon = test system: HT29 colon
HOP-62 NSCLC = test system: HOP-62 NSCLC
T-47D breast = test system: T-47D breast
U251 CNS = test system: U251 CNS
SF-539 CNS = test system: SF-539 CNS
EKVX NSCLC = test system: EKVX NSCLC
MDA-MB-435 = test system: MDA-MB-435

Structure (SMILES)	GI50 (CAKI-1 renal) [µM]	TGI (CAKI-1 renal) [µM]	GI50 (NCI-H460 lung) [µM]	TGI (NCI-H460 lung) [µM]	GI50 (HCT-15 colon) [µM]	TGI (HCT-15 colon) [µM]	GI50 (HT29 colon) [µM]	TGI (HT29 colon) [µM]	GI50 (HOP-62 NSCLC) [µM]	TGI (HOP-62 NSCLC) [µM]	GI50 (T-47D breast) [µM]	TGI (T-47D breast) [µM]	GI50 (U251 CNS) [µM]	TGI (U251 CNS) [µM]	GI50 (SF-539 CNS) [µM]	TGI (SF-539 CNS) [µM]	GI50 (EKVX NSCLC) [µM]	TGI (EKVX NSCLC) [µM]	GI50 (MDA-MB-435) [µM]	TGI (MDA-MB-435) [µM]
Fc1ccc(-c2ncn(C3CCNCC3)c2-c2ccnc(Oc3ccc4c(c3)OCO4)n2)cc1	> 20.9	> 25	> 21.7	> 25	21.1	> 25	9.62	> 25	> 25	> 25	12.7	> 25	15.3	> 25	> 25	> 25	> 25	> 25	> 19.5	> 25
O=S(=O)(O)O		1870		1210		1820		1450		1070		1770		1480		1840		2470		634
Oc1c(C(Nc2ccccc2Br)c2ccccc2)ccc2cccnc12 (stereo not given)	1.36	54.3	0.722	11.7	0.672	27.3	3.85	84.3	2.28	19.7	3.77	73.1	0.674	13.4	3.65	13.5	2.48	> 100	4	70.2
CCC(=O)N1C/C(=C/c2ccc(Cl)cc2)C(=O)/C(=C/c2ccc(Cl)cc2)C1	2.25	7.85	1.12	3.56	0.386	1.25	0.248	0.622	0.499	1.53	1.38	3.27	0.28	0.897	0.69	1.91			0.403	1.64
OCCCCC#Cc1ccccc1C#Cc1ccc(O)cc1	15.7	30.3	20.6	48.6	14.1	28	9.41	22.2	21.9	38.1	19.7	45.2	15	29.3	17.9	35.9	17	37	16.1	31
CC1=CC2C(C(O)CC3(C)C2CC(C)C32OCOC23COCO3)C2(C)C/C(=C/O)C(=O)C=C12 (stereo not given)	1.94	3.8			1.97	5.07	1.79	5.01	1.99	3.52	2.33	5.73	1.66	3.27	1.93	3.64	2.31	7.48	1.78	3.64
COc1ccc(/C=C(/c2ccccc2)[N+](=O)[O-])c(OC)c1	1.23	2.64	1.87	3.87	0.576	2.13	2.88	10.3	2.42	4.77	0.668	4.21	1.48	3.15	1.58	2.94	1.73	3.98	1.45	2.97
COc1ccccc1/C=C1\COc2ccc(-c3ccccc3)cc2C1=O	4.74	> 100	2.1	4.62	2.64	13.1			7.6	> 100	2.83	> 100	2.12	6.24	2.61	6.44	5.59	> 100	2.11	> 100
CN(C)Cc1ccc(-c2cc3onc(-c4ccccc4)c3c(=O)n2C)cc1		> 100		32.3		50.2		29.8		41.3		58.4		64.8		46.8		> 100		59.8
C=C1C(=O)O[C@H]2[C@H]1CC/C(COC(=O)CCCCCC(=O)OC/C1=C/CC[C@@]3(C)O[C@H]3[C@H]3OC(=O)C(=C)[C@@H]3CC1)=C\CC[C@@]1(C)O[C@@H]21			3.21	12.2	1.68	3.81	1.97	3.84	2.34	6.46	1.96	5.74	2.64	9.61	1.67	3.58	2.84	11.5	2.58	8.92
CCCCNNC(=O)c1ccc(Br)cc1	2.88	> 27	2.97	> 50	6.87	> 50	1.92	> 39	2.98	> 34.2	1.11	7.49	3.78	28.5	1.76	> 50			2.21	> 50
N#Cc1nc(-c2ccc(F)cc2)oc1S(=O)(=O)N1CCCCC1	1.66	3.03	4.77	19.6	1.59	3.37	2.4	5.42	5.59	25.5	2.13	5.44	2.22	5.31	1.73	3.12	1.86	3.96	1.82	3.75
COc1ccc2c(c1)[n+](=O)c(C(=O)c1cccs1)c(C(F)(F)F)n2[O-]	2.87	11.7	1.68	13.8			8.65	> 50	12.1	> 50	5.26	29.8	10.3	> 50	5.1	16.2	1.48	8.21	12.2	> 50
Cc1ccc(/C=C/c2c(C(=O)/C=C/c3ccccc3)c(C)nc3ccccc23)cc1			1.37	2.99	1.32	3.24	1.63	9.5	1.74	3.49	1.28	4.32	1.5	2.87	1.74	3.19	1.85	3.58	2.1	5.59
COc1ccc([C@H](CC(=O)O)N2CCN(CCCc3ccc4c(n3)NCCC4)C2=O)cn1	2.71	> 100	4.36	> 100	0.311		0.794	> 100	0.414	> 100	0.382	4.65	0.934	> 100	> 100	> 100			0.0216	0.0602
CN(C)C(=O)Nc1nc2cc(Cl)c(Cl)cc2[nH]1	0.525	> 23.5	0.44	30	0.546	> 100	0.393	> 32.5	3.84	> 50.7	0.655	> 100	0.636	> 51.1	0.537	6.05	5.3	> 100	0.2	3.85
CCCCCCCCCCCC1=NC(C)(C)CN1C(C)(C)CO	1.73	4.37	1.55	2.91	2.15	4.74	1.92	4.1	2.72	9.53	2.05	5.31	1.9	4.77	1.85	3.51	2.77	16.9	1.73	3.5
O=c1c2c([nH]c3nccn13)CCC2		> 10		> 10		> 10		> 10		> 10		> 10		> 10		> 10		> 10		> 10
O=[N+]([O-])c1cccc(/C=N/NC2=CS(=O)(=O)C=C2)c1		> 100		> 100		> 100		> 100		> 100		> 100		> 100		> 100		> 100		> 100
CN(C)c1ccc(Nc2c3ccccc3nc3ccccc23)cc1	0.486	2.33	0.367	1.72	0.959	3.49	0.53	2.34	1.14	2.59	1.56	4.01	1.12	2.7	1.72	8.33	1.4	6.35	0.685	2.33
COC(=O)c1cc(-c2ccccc2)[nH]c1N/N=C/c1c(Cl)cccc1Cl	0.354	4.39	0.319	1.25	0.308	> 36	0.35		0.471	> 33.6	0.418	7.36	0.332	3.58	0.218	0.605	0.454	> 37.3	0.0311	0.119
Nc1ccn(C2CC(F)C(CO)O2)c(=O)n1 (stereo not given)	> 100	> 100	> 100	> 100	> 100	> 100	> 100	> 100	> 100	> 100	> 100	> 100	> 100	> 100	> 100	> 100	> 100	> 100	> 100	> 100
c1ccc(-c2nn3c(c2-c2ccnc4cc(OCCN5CCOCC5)ccc24)CCC3)nc1	45.6	> 100	33.6	> 100	31.5	> 100	30.3	> 100	99.4	> 100	> 100	> 100	97.3	> 100	> 100	> 100	> 100	> 100	25.8	> 100
COc1ccc(-c2c(C)c(C(=O)O)nc(-c3ccc4c(O)c(OC)c5c(c4n3)=NC(C)(C)N=5)c2N)c(O)c1OC				17		> 100		> 100		44		> 100		25.8		35.5		> 100		30.7
CCOc1ccc2c(-c3ccnc(Nc4cc(OC)cc(C(F)(F)F)c4)n3)cnn2n1	> 10.3	> 25	> 15.7	> 25	> 23.3	> 25	8.4	> 25	> 25	> 25	1.26	> 25	> 13	> 25	5.96	> 14.7	> 25	> 25	0.903	> 10.5
COc1ccc2c(c1)/C(=C\c1ccncc1)C(=O)N2	3.64	15.9	6.68	> 100	2.97	13.1			21.8	41	22.3	> 100	4.32	23.1	2.98	11.4	13.9	33	6.57	39.3
O=C(O)C(Cc1cnc[nH]1)N1C(=O)c2ccccc2C1=O (stereo not given)		> 100		> 100		> 100		> 100		> 100		> 100		> 100				> 100		> 100
O=S(=O)(NC1CCCCC1)c1ccc2c(c1)OCCOCCOCCOCCO2		> 100		> 100		> 100		> 100		> 100		> 100				> 100		> 100		> 100
CCCn1c2c(c3c(O)cccc31)C(=O)c1ccccc1-2	20.2	61.9	22.1	> 100	34.1	> 100	29.7	> 100	8.24	27.6	10	> 100	18.2	56.2			15.9	> 100	> 100	> 100
